From patent publication US7560453B2, “6-(2, 3, 4, 5-tetrahydro-1H-benzo [D] azepin-7-yloxy) -nicotamide derivatives as radio labelled ligands” (Glaxo Group Limited, priority 2005, dated 2009)
One block for each compound: values may come before it.

What was measured:
histamine H3 receptor [1] = test: PET imaging with pharmacological challenges (blocking of Compound A uptake); type: in vivo, pig
Description: Four sequential high specific activity iv radioligand Compound A administrations were performed in same animal, same day. Following a baseline scan, Compound A was co-administered with escalating dose of unlabelled unlabelled compound A (0.005, 0.05 and 0.5 mg/kg). [^15O]CO and [^15O]H2O were administered pre and post administration of unlabelled compound A to monitor and to correct for changes in cerebral blood volume and changes in cerebral blood flow. […] A similar experiment was performed using escalating dose of ciproxifan (0.006, 0.06, 0.6 and 2.0 mg/kg), a known selective histamine H3 antagonist.

histamine H3 receptor [2] = test: PET imaging with Compound A in pig brain; type: in vivo
Description: The animals (pig, Yorkshire/Danish Landrace (˜40 Kg; n=2) were housed singly in thermostatically controlled (20° C.) and naturally illuminated stalls. They were scanned under terminal anaesthesia (ketamine induced isoflurane anaesthesia) on different days. The left femoral artery and vein of each animal were surgically cannulated using catheters (Avanti® size 4F-7F). Blood samples were collected from the femoral artery and the radiolabelled and non-labelled agents were injected to the femoral vein. Animals were placed supine in a Siemens ECAT EXACT HR tomograph, with the head immobilized in a custom-made holding device. During the study, blood pH, pCO2 and pO2 levels were monitored and maintained within the normal physiological range. In addition, BP and heart rate were recorded throughout the study. Compound A was administered intravenously in the femoral vein as a 1 minute bolus injection. PET scanning and arterial blood sampling was commenced upon start of the radioligand administration.

Human receptor H4 = Human receptor H4 (Homo sapiens, UniProt Q9H3N8); test: Binding affinity, human H4 receptor; conditions: read-out: Binding affinity (pKi), human H4 (converted)
Human receptor H1 = Human receptor H1 (Homo sapiens, UniProt P35367); test: Binding affinity, human H1 receptor; conditions: read-out: Binding affinity (pKi), human H1 (converted)
Sequence of Human receptor H1 (P35367 whole entry): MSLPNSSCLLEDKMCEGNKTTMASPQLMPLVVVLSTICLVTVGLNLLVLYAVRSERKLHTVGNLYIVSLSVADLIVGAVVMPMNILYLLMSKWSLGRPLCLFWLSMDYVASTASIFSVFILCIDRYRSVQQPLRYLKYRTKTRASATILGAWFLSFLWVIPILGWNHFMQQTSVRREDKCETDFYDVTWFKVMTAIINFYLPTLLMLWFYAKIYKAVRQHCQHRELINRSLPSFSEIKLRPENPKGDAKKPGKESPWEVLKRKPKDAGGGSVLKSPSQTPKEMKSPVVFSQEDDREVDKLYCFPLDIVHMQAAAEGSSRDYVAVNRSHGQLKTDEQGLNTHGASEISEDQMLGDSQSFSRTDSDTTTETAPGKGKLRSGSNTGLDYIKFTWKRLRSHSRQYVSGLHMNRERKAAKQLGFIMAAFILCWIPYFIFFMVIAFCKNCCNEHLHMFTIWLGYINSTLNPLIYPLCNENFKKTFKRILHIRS

Human receptor H2 = Human receptor H2 (Homo sapiens, UniProt P25021); test: Binding affinity, human H2 receptor; conditions: read-out: Binding affinity (pKi), human H2 (converted)
Sequence of Human receptor H2 (P25021 whole entry): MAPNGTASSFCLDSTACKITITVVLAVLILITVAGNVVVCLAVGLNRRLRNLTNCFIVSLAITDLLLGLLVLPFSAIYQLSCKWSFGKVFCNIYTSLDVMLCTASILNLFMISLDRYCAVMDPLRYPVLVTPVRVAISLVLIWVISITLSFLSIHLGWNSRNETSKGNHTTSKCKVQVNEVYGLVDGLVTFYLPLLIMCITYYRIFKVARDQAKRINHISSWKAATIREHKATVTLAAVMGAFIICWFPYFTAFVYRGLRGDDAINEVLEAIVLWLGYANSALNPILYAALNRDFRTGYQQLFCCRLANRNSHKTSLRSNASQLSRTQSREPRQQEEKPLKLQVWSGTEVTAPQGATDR

[3] = molecular target: T1, human histamine H3 receptor (Homo sapiens, UniProt Q9Y5N1); test: Competition binding assay using [125I]iodoproxifan, cell lines stably expressing human histamine H3 receptor
T1 construct: expressed in transfected cells
T1 sequence (Q9Y5N1 whole entry): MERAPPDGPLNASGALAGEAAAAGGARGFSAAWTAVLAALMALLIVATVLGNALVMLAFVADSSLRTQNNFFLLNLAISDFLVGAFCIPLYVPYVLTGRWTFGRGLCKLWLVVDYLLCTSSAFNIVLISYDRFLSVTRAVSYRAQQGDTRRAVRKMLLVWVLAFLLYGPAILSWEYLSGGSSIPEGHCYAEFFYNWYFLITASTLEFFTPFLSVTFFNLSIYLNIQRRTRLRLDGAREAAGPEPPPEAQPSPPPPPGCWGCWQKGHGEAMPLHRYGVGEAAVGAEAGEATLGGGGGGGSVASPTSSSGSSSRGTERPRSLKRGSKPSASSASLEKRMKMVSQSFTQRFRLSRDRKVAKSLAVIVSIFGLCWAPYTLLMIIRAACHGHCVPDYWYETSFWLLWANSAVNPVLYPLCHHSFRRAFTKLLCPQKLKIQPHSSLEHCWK
Description: The in vitro affinity of unlabelled Compound A for the histamine H3 receptor was determined by competition assay using [^125I]iodoproxifan as radioligand binding to cell lines stably expressing human histamine H3 receptor.^13

histamine H3 receptors = conditions: prior art radioligands; cited from earlier work
[4] = 2.0 mg/kg ciproxifan, 85 min post-injection

SMILES: O=C(c1ccc(OCCCc2cnc[nH]2)cc1)C1CC1 [ciproxifan]
Ratio tissue to cerebellum of Compound A, frontal cortex (histamine H3 receptor [1]; [4]): 1.08
Ratio tissue to cerebellum of Compound A, occipital cortex (histamine H3 receptor [1]; [4]): 0.99
Ratio tissue to cerebellum of Compound A, parietal cortex (histamine H3 receptor [1]; [4]): 0.91
Ratio tissue to cerebellum of Compound A, striatum (histamine H3 receptor [1]; [4]): 1.22
Ratio tissue to cerebellum of Compound A, thalamus (histamine H3 receptor [1]; [4]): 0.72
Effect on Compound A uptake in H3-rich brain regions (histamine H3 receptor [1]; escalating dose 0.006, 0.06, 0.6 and 2.0 mg/kg): dose-dependent decrease

Concentration in cerebellum (histamine H3 receptor [2]): low
Ratio relative to cerebellum, frontal cortex (histamine H3 receptor [2]; 85 min, baseline): 5.3
Ratio relative to cerebellum, occipital cortex (histamine H3 receptor [2]; 85 min, baseline): 3.8
Ratio relative to cerebellum, parietal cortex (histamine H3 receptor [2]; 85 min, baseline): 4.9
Ratio relative to cerebellum, striatum (histamine H3 receptor [2]; 85 min, baseline): 9.0
Ratio relative to cerebellum, thalamus (histamine H3 receptor [2]; 85 min, baseline): 3.4
Time of peak brain uptake of radioactivity (histamine H3 receptor [2]; after administration of the radiotracer): 25 min
Brain entry (histamine H3 receptor [2]; iv 1 minute bolus): readily enters the pig brain
SMILES: [11CH3]NC(=O)c1ccc(Oc2ccc3c(c2)CCN(C2CCC2)CC3)nc1 [Compound A, [^11C-N-methyl]-6-(3-cyclobutyl-2,3,4,5-tetrahydro-1H-benzo[d]azepin-7-yloxy)-nicotamide]
Regional brain distribution (histamine H3 receptor [2]; higher accumulation in striatum, cortices, thalamus, hypothalamus): reflected the known distribution of the histamine H3 receptor

Ki (Human receptor H4): > 3.16 µM
Ki (Human receptor H1): 2.51 µM
Ki (Human receptor H2): > 3.16 µM
Selectivity over other receptors ([3]; H3 versus other receptors): high selective over other receptors
Ki ([3]; [125I]iodoproxifan as radioligand, read-out: Binding affinity (pKi), human H3 (converted)): 0.000257 µM
SMILES: CNC(=O)c1ccc(Oc2ccc3c(c2)CCN(C2CCC2)CC3)nc1 [unlabelled Compound A]
Effect on specific uptake of radiotracer Compound A (histamine H3 receptor [1]; co-administered at 0.005, 0.05 and 0.5 mg/kg): specific uptake of radiotracer was blocked

SMILES: [123I]c1ccc(COCCCc2cnc[nH]2)cc1 [[^123I]iodoproxifan]
Alteration of brain distribution by selective H3 receptor ligand (histamine H3 receptors): no significant alteration of the brain distribution by selective H3 receptor ligand
